In patent publication US8119681B2, “2-[1-phenyl-5-hydroxy or methoxy-4alpha-methyl-hexahydrocyclopenta [ƒ]indazole-5-YL]ethyl phenyl derivatives as glucocorticoid receptor ligands” (Merck Sharp & Dohme Corp., priority 2006, dated 2012) one finds Emax data, which are given here for 10 compounds.

The experiment deals with T1, human GR (Homo sapiens, UniProt P04150).
T1 sequence (P04150 1-777): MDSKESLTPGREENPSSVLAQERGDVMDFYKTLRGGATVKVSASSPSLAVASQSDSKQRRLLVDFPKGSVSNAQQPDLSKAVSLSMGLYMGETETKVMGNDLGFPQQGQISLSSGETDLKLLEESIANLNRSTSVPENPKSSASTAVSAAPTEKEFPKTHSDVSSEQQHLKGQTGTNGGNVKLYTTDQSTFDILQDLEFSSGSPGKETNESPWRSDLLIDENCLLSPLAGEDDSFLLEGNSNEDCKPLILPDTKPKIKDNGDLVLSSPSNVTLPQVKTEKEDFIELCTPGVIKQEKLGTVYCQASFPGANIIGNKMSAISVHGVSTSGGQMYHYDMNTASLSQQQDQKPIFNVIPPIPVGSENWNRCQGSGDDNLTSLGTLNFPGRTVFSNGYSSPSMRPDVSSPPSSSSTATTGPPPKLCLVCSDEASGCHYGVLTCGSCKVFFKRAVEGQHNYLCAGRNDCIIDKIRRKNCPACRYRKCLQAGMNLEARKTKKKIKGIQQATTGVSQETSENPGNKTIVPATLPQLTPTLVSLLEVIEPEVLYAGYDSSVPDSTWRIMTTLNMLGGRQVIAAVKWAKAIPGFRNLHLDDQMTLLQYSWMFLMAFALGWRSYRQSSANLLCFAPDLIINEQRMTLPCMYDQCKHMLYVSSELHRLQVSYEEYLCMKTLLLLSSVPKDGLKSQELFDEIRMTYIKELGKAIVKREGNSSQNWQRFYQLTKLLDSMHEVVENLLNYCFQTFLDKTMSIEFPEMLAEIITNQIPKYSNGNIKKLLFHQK
As to the kind of experiment: Transrepression Assay (GITAR), TNFα-β-lactamase reporter gene in U937 cells. In kind it is cell-based. Also on record: U937 cells contain an endogenous glucocorticoid receptor (GR); endogenous in cells; host or cells: U937 cells stably transfected with the TNF-α promoter/β-lactamase reporter only. The note with it: U-937; 100 nM dexamethasone = 100% activity; read-out: maximal activity in the transrepression assay. An excerpt:
Transrepression Assay (GITAR)
This assay assesses the ability of test compounds to control transcription from the TNFα-β-lactamase reporter gene in U937 cells, a human myelomonocytic leukemia cell line that naturally expresses the human GR. The assay measures compound dependent-repression of the TNFa promoter linked to a reporter gene.
The human U937 cells that had been stably transfected with the TNF-α promoter driving β-lactamase are used for this assay. U937 cells contain an endogenous glucocorticoid receptor (GR). […] 50,000 cells/well are plated in 96 well black-walled plates the day of assay. Test compounds are added 10 μL/well, and cells are incubated at 37° C. for 30˜45 min. For assaying compounds, first dilute 1:10 in DMSO to make 1 mM, then further dilute 1:100 in medium to make 10× stock prior to adding to the cells. Add 50 ng/ml PMA (Sigma, cat# P8139) 10 μL/well to a final concentration 5 ng/ml, and 1 μg/ml LPS (Sigma, cat# L4130) 10 μL/well to a final concentration 100 ng/ml. Incubate cells at 370 C overnight for ˜18 hr. PMA is stored frozen as 100 μg/ml stock in DMSO. Dilute 1:10 in DMSO for a working stock of 10 μg/ml and store at −20 C. For assaying, dilute the 10 μg/ml working stock 1:200 in medium to make a 10× solution (50 ng/ml). Store frozen LPS at 1 mg/ml in PBS, dilute 1:1000 in medium to make 10× (1 μg/ml) for the assay. Add 6× loading buffer (CCF2-AM) 20 μL/well, and incubate at room temperature for 70˜90 min. […] The activity repressed by 100 nM dexamethasone alone is set as 100% activity.

For the compound `C[C@]12Cc3cnn(-c4ccc(F)cc4)c3C=C1CC[C@@]2(O)CCc1ccccc1C(=O)N1CC[C@H](F)C1` [Example 54, (4αS,5R)-1-(4-fluorophenyl)-5-[2-(2-{[(3S)-3-fluoropyrrolidin-1-yl]carbonyl}phenyl)ethyl]-4α-methyl-1,4,4α,5,6,7-hexahydrocyclopenta[f]indazol-5-ol], the Emax was 5 to 100%.
The result for `C[C@]12Cc3cnn(-c4ccc(F)cc4)c3C=C1CC[C@@]2(O)CCc1ccccc1CC(=O)NCC(F)(F)F` [Example 56, 2-(2-{2-[(4αS,5R)-1-(4-fluorophenyl)-5-hydroxy-4α-methyl-1,4,4α,5,6,7-hexahydrocyclopenta[f]indazol-5-yl]ethyl}phenyl)-N-(2,2,2-trifluoroethyl)acetamide] reads 5 to 100%; that for `C[C@]12Cc3cnn(-c4ccc(F)cc4)c3C=C1CC[C@@]2(O)CCc1ccccc1C(=O)N1CC[C@@H](O)C1` [Example 58, (4αS,5R)-1-(4-fluorophenyl)-5-[2-(2-{[(3R)-3-hydroxypyrrolidin-1-yl]carbonyl}phenyl)ethyl]-4α-methyl-1,4,4α,5,6,7-hexahydrocyclopenta[f]indazol-5-ol], 5 to 100%.
As for `C[C@]12Cc3cnn(-c4ccc(F)cc4)c3C=C1CC[C@@]2(O)CCc1ccccc1C(N)=O` [Example 60, 2-{2-[(4αS,5R)-1-(4-fluorophenyl)-5-hydroxy-4α-methyl-1,4,4α,5,6,7-hexahydrocyclopenta[f]indazol-5-yl]ethyl}benzamide], the figure is 5 to 100%.
The result for `CC1(NC(=O)c2c(F)cccc2CC[C@]2(O)CCC3=Cc4c(cnn4-c4ccc(F)cc4)C[C@@]32C)CC1` [Example 63, 2-fluoro-6-{2-[(4αS,5R)-1-(4-fluorophenyl)-5-hydroxy-4α-methyl-1,4,4α,5,6,7-hexahydrocyclopenta[f]indazol-5-yl]ethyl}-N-(1-methylcyclopropyl)benzamide] reads 5 to 100%; that for `C[C@]12Cc3cnn(-c4ccc(F)cc4)c3C=C1CC[C@@]2(O)CCc1ccccc1C(=O)NCC(F)(F)F` [Example 64, 2-{2-[(4αS,5R)-1-(4-fluorophenyl)-5-hydroxy-4α-methyl-1,4,4α,5,6,7-hexahydrocyclopenta[f]indazol-5-yl]ethyl}-N-(2,2,2-trifluoroethyl)benzamide], 5 to 100%.
As for `C[C@]12Cc3cnn(-c4ccc(F)cc4)c3C=C1CC[C@@]2(O)CCc1cccc(F)c1C(=O)N1CCC1` [Example 65, (4αS,5R)-5-{2-[2-(azetidin-1-ylcarbonyl)-3-fluorophenyl]ethyl}-1-(4-fluorophenyl)-4α-methyl-1,4,4α,5,6,7-hexahydrocyclopenta[f]indazol-5-ol], the Emax fell in the range of 5 to 100%.
As for `C[C@]12Cc3cnn(-c4ccc(F)cc4)c3C=C1CC[C@@]2(O)CCc1ccccc1C(=O)N1CCCC(F)(F)C1` [Example 66, (4αS,5R)-5-(2-{2-[(3,3-difluoropiperidin-1-yl)carbonyl]phenyl}ethyl)-1-(4-fluorophenyl)-4α-methyl-1,4,4α,5,6,7-hexahydrocyclopenta[f]indazol-5-ol], the figure is 5 to 100%; as for `CC(C)NC(=O)c1c(F)cccc1CC[C@]1(O)CCC2=Cc3c(cnn3-c3ccc(F)cc3)C[C@@]21C` [Example 67, 2-fluoro-6-{2-[(4αS,5R)-1-(4-fluorophenyl)-5-hydroxy-4α-methyl-1,4,4α,5,6,7-hexahydrocyclopenta[f]indazol-5-yl]ethyl}-N-isopropylbenzamide], 5 to 100%; as for `C[C@]12Cc3cnn(-c4ccc(F)cc4)c3C=C1CC[C@@]2(O)CCc1cccc(F)c1C(N)=O` [Example 68, 2-fluoro-6-{2-[(4αS,5R)-1-(4-fluorophenyl)-5-hydroxy-4α-methyl-1,4,4α,5,6,7-hexahydrocyclopenta[f]indazol-5-yl]ethyl}benzamide], 5 to 100%.
